Source: patent US10196356B2, “Mixed disulfide conjugates of thienopyridine compounds and uses thereof” (The Regents of the University of Michigan, priority 2013, dated 2019)
Each block holds one molecule with its values, some of them ahead of it.

Legend:
[1] = system: platelets (P2Y12 receptor); assay: Ex vivo anti-platelet activity of the mixed disulfide conjugates (ADP-induced aggregation, aggregometer); assay type: cell-based, New Zealand white rabbits; conditions: 10 μM ADP; for inhibition of platelet aggregation, conjugate itself: not treated with GSH
Description: The mixed disulfide conjugates were prepared and purified from the reaction mixtures in the presence of 0.3 mM CPT and NPT, along with three control samples containing either 1 mM GSH, no thiol reductant or no G6PD. All samples were re-suspended in 0.5 ml PPP, some of which were treated to 1 mM GSH to release the AM. Platelet aggregation was initiated by the addition of 10 μM ADP and recorded with an aggregometer. The percentage of aggregation was normalized to that of PRP and averaged over four separate measurements. For details, see Materials and Methods. Legend: PRP, untreated platelet-rich plasma; GSH, 1 mM GSH in PRP; −G6PD, metabolites produced in the absence of G6PD; —SH, metabolites produced in the absence of any thiol reductants; GSH, metabolites produced in the presence of 1 mM GSH; CPT, metabolites produced in the presence of 0.3 mM CPT; CPT+GSH, metabolites produced in the presence of 0.3 mM CPT and then treated with 1 mM GSH; NPT, metabolites produced in the presence of 0.3 mM NPT; NPT+GSH, metabolites produced in the presence of 0.3 mM NPT and then treated with 1 mM GSH.
In order to generate sufficient quantities of the mixed disulfide conjugates, the metabolism of 2-oxoclopidogrel was performed in 2-ml reaction mixtures containing 1 mg/ml HLM, 0.1 mM 2-oxoclopidogrel, the NADPH-regenerating system, and 0.3 mM CPT or NPT or 1 mM GSH. The reaction was initiated by the addition of 10 units G6PD and incubated at 37° C. for 50 min. Two control samples were prepared in parallel. […] After an incubation of 50 min, the reaction mixtures were centrifuged at 13,000×g to remove the HLMs. The supernatants were loaded onto SPE C18 cartridges to enrich the mixed disulfide conjugates. After extensive washing with water to remove salts and other water-soluble metabolites, the conjugate samples were eluted with 2 ml of methanol. The methanolic fractions were dried using a Speedvac concentrator and the dried samples were then re-suspended in 1 ml of platelet-poor plasma (PPP). Prior to the anti-platelet activity assays, the re-suspended conjugates were divided into two equal volumes (0.5 ml each), one of which was treated with 1 mM GSH at 37° C. for 30 min to generate the AM. Both samples were then placed on ice until use.
The procedures used to determine ex vivo anti-platelet activity were previously reported (see, e.g., Abell L M and Liu E C (2011) J Pharm Exp Ther 339(2):589-596).
Male New Zealand white rabbits (2.2-2.9 kg) were used as blood donors. Whole blood was drawn from a central ear artery into a plastic syringe containing 3.7% sodium citrate as the anticoagulant (1:10 volume ratio of citrate to blood). A whole blood cell count was determined with a Medonic CA620 hematology analyzer (Clinical Diagnostic Solutions, Inc., Plantation, Fla., USA). Platelet-rich plasma (PRP), the supernatant present after centrifugation of whole blood at 100×g for 10 min, was diluted with PPP to achieve a platelet count of approximately 300,000/μl. Platelet-poor plasma was prepared by centrifuging the remaining blood at 1,500×g for 10 min and discarding the bottom cellular layer. The diluted PRP was divided into 0.5 ml samples, centrifuged again at 170×g for 10 mins, and the resulting supernatant was discarded. The platelet pellets were re-suspended in platelet-poor plasma containing the various chemical inhibitors prepared as described previously and incubated with gentle shaking at 37° C. for 60 min to modify the P2Y12 receptor. Ex vivo platelet aggregation was assessed by established nephelometric methods with the use of a 4-channel aggregometer (BioData PAP-4; BioData Corp., Horsham, Pa., USA) by recording the increase in light transmission through a stirred suspension of PRP maintained at 37° C. Platelet aggregation was induced with ADP (10 μM). A subaggregatory concentration of epinephrine (550 nM) was used to prime the platelets before addition of the agonist.

platelets = assay: Platelet aggregation assay with conjugates pre-incubated with GSH (Example III); assay type: cell-based, rabbits; conditions: 5 μM ADP; for inhibition of platelet aggregation: conjugate incubated with 1 mM GSH 37° C. 30 min, compared with negative control without conjugate
Description: Approximately 20 ml blood was drawn from rabbits and platelets were collected by centrifugation whereas the supernatants were collected as platelet poor plasma (PPP). Prior to the inhibition assay, the conjugates of Clop-CPT and Tic-NPT were dissolved in 0.5 ml PPP and incubated with 1 mM GSH at 37° C. for 30 min to produce the active metabolite. The platelets were then re-suspended gently in the PPP containing the active metabolite. After incubation at 37° C. for one hour, platelet aggregation was initiated by the addition of 5 μM of the agonist ADP. Platelet aggregation was then recorded using an aggregometer.

[2] = Kinetics for the reduction of the mixed disulfide conjugates of clopidogrel by GSH (conversion to the AM); assay type: in vitro ADME; conditions: for first order rate constant for the loss of the mixed disulfide conjugate: 0.2 mg/ml cytosol, 37° C.; for second order rate constant for the loss of the conjugate: equivalent from pseudo first order with 1 mM GSH, with cytosol
Description: The mixed disulfide conjugates were prepared from the reaction mixtures containing 1 mg/ml HLM, 0.1 mM 2-oxoclopidogrel, the NADPH-regenerating system and various thiol reductants and purified using SPE C18 cartridges as described in Materials and Methods. The purified conjugates were then mixed with 1 mM GSH and 0.2 mg/ml cytosol (when present). The conjugate remaining and the AM formed were analyzed using LC-MS/MS. Legend: (A) reduction of the conjugates of BME (◯), CPT (▪), NAC (▾), DFT (▴), and NPT (□) by 1 mM GSH in the presence of 0.2 mg/ml cytosol. (B) reduction of the CPT conjugate by 1 mM GSH in the presence and absence of 0.2 mg/ml cytosol. Legend: (◯), formation of AM in the absence of cytosol; (Δ), formation of the AM in the presence of cytosol; (●), reduction of the conjugate in the absence of cytosol; (▴), reduction of the conjugate in the presence of cytosol. The solid and dashed lines are non-linear curve fittings to a single exponential function.
To examine the reactivity of the mixed disulfide conjugates, the kinetics for the reduction of the mixed disulfide conjugates by GSH were determined. The mixed disulfide conjugates were generated in 1 ml of 50 mM KPi buffer (pH 7.4) buffer containing 1 mg/ml HLM, 0.1 mM 2-oxoclopidogrel and 0.3 or 1 mM thiol reductants. The reaction was incubated at 37° C. for 50 min after initiated by the addition of G6PD. The reaction mixture was then centrifuged at 13,000×g to remove the HLMs and the supernatant was loaded to a pre-conditioned SPE cartridge (C18, 100 mg/1 ml, Agilent Technologies, CA) and the mixed disulfide conjugate was eluted with 2 ml of methanol. The eluent was then dried using a Speedvac concentrator and the dried sample was stored at −80° C. until use. Prior to the kinetic measurements, the dried samples were first re-dissolved in 0.5 ml of 50 mM KPi buffer (pH 7.4) and then equilibrated at 37° C. for 5 min. Small aliquots (1-5 μl) of stock GSH and cytosol (when present) solutions were added to the conjugate samples at 1 mM and 0.2 mg/ml, respectively, to initiate the thiol-disulfide exchange reaction. At designated times, an aliquot of 50 μl of the reaction mixture was withdrawn and mixed with 25 μl of 10% acetic acid in acetonitrile to terminate the thiol-disulfide exchange reaction. The t=0 sample was prepared immediately prior to the addition of GSH. The amounts of the mixed disulfide conjugates and the AM were analyzed using LC-MS/MS as described above.

[3] = 1 mM GSH, in the absence of cytosol
[4] = 1 mM GSH, in the presence of cytosol (FIG. 5B)
[5] = conjugate treated with 1 mM GSH 37° C. 30 min, normalized to PRP

Structure (SMILES): COC(=O)[C@H](c1ccccc1Cl)N1CCC2SC(=O)C=C2C1 (stereo partly drawn) [2-oxoclopidogrel, reference compound]
inhibition of platelet aggregation ([1]; −G6PD control (non-metabolite components of the reaction mixture)): did not inhibit platelet aggregation

Structure (SMILES): COC(=O)[C@H](c1ccccc1Cl)N1CCC(S)/C(=C\C(=O)O)C1 (stereo partly drawn) [AM, reference compound]
level of inhibition of platelet aggregation relative to the conjugates (platelets; positive control: active metabolite generated from HLMs): approximately the same | inhibition of platelet aggregation ([1]; sample from HLM reaction mixture containing 1 mM GSH (AM, estimated 1-4 μM)): ~60%

conjugate remaining after incubation ([2]; 40 min, 1 mM GSH, cytosol): ~50%
Structure (SMILES): COC(=O)[C@H](c1ccccc1Cl)N1CCC(SSCCO)C(=CC(=O)O)C1 (stereo partly drawn) [BME conjugate]
first order rate constant for the loss of the mixed disulfide conjugate ([2]; 1 mM GSH): 0.07 min⁻¹ | second order rate constant for the loss of the conjugate [2]: 1.2 M⁻¹ s⁻¹

Structure (SMILES): COC(=O)C(c1ccccc1Cl)N1CCC(SSc2ccc(Cl)nn2)/C(=C\C(=O)O)C1 (stereo not drawn) [Clop-CPT]
inhibition of platelet aggregation (platelets): approximately 60% | first order rate constant for the loss of the mixed disulfide conjugate ([2]; 1 mM GSH): 0.79 min⁻¹ | rate constant for the formation of the AM [2, 3]: 0.35 min⁻¹ | rate constant for the reduction of the conjugate [2, 3]: 0.39 min⁻¹ | rate constant for the formation of the AM [2, 4]: 0.50 min⁻¹ | rate constant for the reduction of the conjugate [2, 4]: 0.73 min⁻¹ | second order rate constant for the loss of the conjugate [2]: 13 M⁻¹ s⁻¹ | inhibition of platelet aggregation [1, 5]: ~50% | inhibition of platelet aggregation, conjugate itself ([1]; normalized to PRP): did not inhibit platelet aggregation

Structure (SMILES): COC(=O)[C@H](c1ccccc1Cl)N1CCC(SSc2cc(C)oc2C)C(=CC(=O)O)C1 (stereo partly drawn) [DFT conjugate]
first order rate constant for the loss of the mixed disulfide conjugate ([2]; 1 mM GSH): 1.65 min⁻¹ | second order rate constant for the loss of the conjugate [2]: 28 M⁻¹ s⁻¹

Structure (SMILES): COC(=O)C(c1ccccc1Cl)N1CCC(SSCC(NC(C)=O)C(=O)O)C(=CC(=O)O)C1 (stereo not drawn) [NAC conjugate]
first order rate constant for the loss of the mixed disulfide conjugate ([2]; 1 mM GSH): 0.43 min⁻¹ | second order rate constant for the loss of the conjugate [2]: 7.2 M⁻¹ s⁻¹

Structure (SMILES): COC(=O)C(c1ccccc1Cl)N1CCC(SSc2ncccc2[N+](=O)[O-])C(=CC(=O)O)C1 (stereo not drawn) [NPT conjugate]
first order rate constant for the loss of the mixed disulfide conjugate ([2]; 1 mM GSH): 0.13 min⁻¹ | second order rate constant for the loss of the conjugate [2]: 2.2 M⁻¹ s⁻¹ | inhibition of platelet aggregation [1, 5]: ~70% | inhibition of platelet aggregation, conjugate itself ([1]; normalized to PRP): did not inhibit platelet aggregation

Structure (SMILES): O=C(O)/C=C1/CN(Cc2ccccc2Cl)CCC1SSc1ncccc1[N+](=O)[O-] (stereo not drawn) [Tic-NPT, (Z)-2-(1-(2-chlorobenzyl)-4-((3-nitropyridin-2-yl)disulfanyl)piperidin-3-ylidene)acetic acid]
inhibition of platelet aggregation (platelets): approximately 60%
